Here are results for 33 compounds from patent publication US8946426B2, “Substituted bicyclic heterocyclic compounds as gamma secretase modulators” (Janssen Pharmaceuticals, Inc., priority 2009, dated 2015).

pIC50: −log10 of the molar value.

Common to all, as to format: cell-based
Test [1] deals with Aβ42. Description: Method 2: Aβ42 Alphalisa in supernatant of SKNBE2 cells carrying APP 695-wild type (Table 7c). The following applies: Method 2, Alphalisa, overnight incubation. The protocol:
(§1) Screening was carried out using SKNBE2 cells carrying the APP 695-wild type, grown in Dulbecco's Modified Eagle's Medium/Nutrient mixture F-12 (DMEM/NUT-mix F-12) (HAM) provided by Invitrogen (cat no. 10371-029) containing 5% Serum/Fe supplemented with 1% non-essential amino acids, 1-glutamine 2 mM, Hepes 15 mM, penicillin 50 U/ml (units/ml) en streptomycin 50 μg/ml. Cells were grown to near confluency.
(§2) The screening was performed using a modification of the assay as described in Citron et al (1997) Nature Medicine 3: 67. Briefly, cells were plated in a 384-well plate at 10^4 cells/well in Ultraculture (Lonza, BE12-725F) supplemented with 1% glutamine (Invitrogen, 25030-024), 1% non-essential amino acid (NEAA), penicillin 50 U/ml en streptomycin 50 μg/ml in the presence of test compound at different test concentrations. The cell/compound mixture was incubated overnight at 37° C., 5% CO2. The next day the media were assayed by two sandwich immuno-assays, for Aβ42 and Aβtotal.
(§3) Aβtotal and Aβ42 concentrations were quantified in the cell supernatant using the Aphalisa technology (Perkin Elmer). Alphalisa is a sandwich assay using biotinylated antibody attached to streptavidin coated donorbeads and antibody conjugated to acceptor beads. In the presence of antigen, the beads come into close proximity. The excitation of the donor beads provokes the release of singlet oxygen molecules that trigger a cascade of energy transfer in the acceptor beads, resulting in light emission. To quantify the amount of Aβ42 in the cell supernatant, monoclonal antibody specific to the C-terminus of Aβ42 (JRF/cAβ42/26) was coupled to the receptor beads and biotinylated antibody specific to the N-terminus of Aβ (JRF/AβN/25) was used to react with the donor beads. To quantify the amount of Aβtotal in the cell supernatant, monoclonal antibody specific to the N-terminus of Aβ (JRF/AβN/25) was coupled to the receptor beads and biotinylated antibody specific to the mid region of Aβ (biotinylated 4G8) was used to react with the donor beads.
(§4) To obtain the values reported in Table 7c, the data were calculated as percentage of the maximum amount of amyloid Beta 42 measured in the absence of the test compound. The sigmoidal dose response curves were analyzed using non-linear regression analysis with percentage of the control plotted against the log concentration of the compound. A 4-parameter equation was used to determine the IC50.
A general note: Alpha assays give light when donor and acceptor beads are brought close together.

Test [2] deals with Aβtotal. Kind of test: Method 2: Aβtotal Alphalisa in supernatant of SKNBE2 cells carrying APP 695-wild type (Table 7c). The following applies: Method 2, Alphalisa, overnight incubation. The protocol:
as §1, §2, §3, §4

Test [3] concerns Aβ42. Description: Method 1: Aβ42 sandwich ELISA in supernatant of SKNBE2 cells carrying APP 695-wild type (Tables 7a, 7b). The following applies: Table 7b, averaged IC50, non-linear regression of percentage of control vs log concentration, 4-parameter equation. As for the experimental part: (§5) Screening was carried out using SKNBE2 cells carrying the APP 695-wild type, grown in Dulbecco's Modified Eagle's Medium/Nutrient mixture F-12 (DMEM/NUT-mix F-12) (HAM) provided by Gibco (cat no. 31330-38) containing 5% Serum/Fe supplemented with 1% non-essential amino acids. Cells were grown to near confluency.
(§6) The screening was performed using the assay as described in Citron et al (1997) Nature Medicine 3: 67. Briefly, cells were plated in a 96-well plate at about 10^5 cells/ml one day prior to addition of compounds. Compounds were added to the cells in Ultraculture (Lonza, BE12-725F) supplemented with 1% glutamine (Invitrogen, 25030-024) for 18 Hours. The media were assayed by two sandwich ELISAs, for Aβ42 and Aβtotal. Toxicity of the compounds was assayed by WST-1 cell proliferation reagent (Roche, 1 644 807) according to the manufacturer's protocol.
To quantify the amount of Aβ42 in the cell supernatant, commercially available Enzyme-Linked-Immunosorbent-Assay (ELISA) kits were used (Innotest® β-Amyloid(1-42), Innogenetics N.V., Ghent, Belgium). The Aβ42 ELISA was performed essentially according to the manufacturer's protocol. Briefly, the standards (dilutions of synthetic Aβ1-42) were prepared in polypropylene Eppendorf with final concentrations of 8000 down to 3.9 pg/ml (½ dilution step). Samples, standards and blanks (100 μl) were added to the anti-Aβ42-coated plate supplied with the kit (the capture antibody selectively recognizes the C-terminal end of the antigen). The plate was allowed to incubate 3 H at 25° C. in order to allow formation of the antibody-amyloid complex. Following this incubation and subsequent wash steps a selective anti-Aβ-antibody conjugate (biotinylated 3D6) was added and incubated for a minimum of 1 Hour in order to allow formation of the antibody-Amyloid-antibody-complex. After incubation and appropriate wash steps, a Streptavidine-Peroxidase-Conjugate was added, followed 30 minutes later by an addition of 3,3′,5,5′-tetramethylbenzidine (TMB)/peroxide mixture, resulting in the conversion of the substrate into a coloured product. This reaction was stopped by the addition of sulfuric acid (0.9 N) and the colour intensity was measured by means of photometry with an ELISA-reader with a 450 nm filter.
(§7) To obtain the values reported in Table 7a, the sigmoidal dose response curves were analysed by computerised curve-fitting, with percent of inhibition plotted against compound concentration. A 4-parameter equation (model 205) in XLfit was used to determine the IC50. The top and the bottom of the curve were fixed to 100 and 0, respectively, and the hill slope was fixed to 1. The IC50 represents the concentration of a compound that is required for inhibiting a biological effect by 50% (Here, it is the concentration where Aβ peptide level is reduced by 50%).
(§8) To obtain the values reported in Table 7b, the data were calculated as percentage of the maximum amount of amyloid Beta 42 measured in the absence of the test compound. The sigmoidal dose response curves were analyzed using non-linear regression analysis with percentage of the control plotted against the log concentration of the compound. A 4-parameter equation was used to determine the IC50. The values reported in Table 7b are averaged IC50 values.
On the technique in general: ELISA stands for enzyme-linked immunosorbent assay.

Test [4] deals with Aβtotal. Description: Method 1: Aβtotal sandwich ELISA in supernatant of SKNBE2 cells carrying APP 695-wild type (Tables 7a, 7b). The following applies: Table 7b, averaged IC50, non-linear regression of percentage of control vs log concentration, 4-parameter equation. The protocol: as §5, §6
To quantify the amount of Aβtotal in the cell supernatant, samples and standards were added to a 6E10-coated plate. The plate was allowed to incubate overnight at 4° C. in order to allow formation of the antibody-amyloid complex. Following this incubation and subsequent wash steps a selective anti-Aβ-antibody conjugate (biotinylated 4G8) was added and incubated for a minimum of 1 Hour in order to allow formation of the antibody-Amyloid-antibody-complex. After incubation and appropriate wash steps, a Streptavidine-Peroxidase-Conjugate was added, followed 30 minutes later by an addition of Quanta Blu fluorogenic peroxidase substrate according to the manufacturer's instructions (Pierce Corp., Rockford, Ill.).
as §7, §8

The pIC50 is the IC50 on a negative log10 scale, so that one unit is a factor of ten. High values mean a small IC50, low ones a large IC50. Turning to `COc1nc(Nc2cccc3c2nc(-c2ccc(F)cc2)n3C)ccc1-c1cnn(C)c1` [Compound 68], the results for the pIC50 in test [1] and in test [2] were 7.74 and less than 5.00, respectively.
For `COc1nc(Nc2cccc3c2nc(-c2ccc(F)cc2)n3C(C)C)ccc1-c1cnn(C)c1` [Compound 69] the same measures were 7.66 and less than 5.00.
`COc1cc(Nc2cccc3c2nc(-c2ccc(F)cc2)n3C)ccc1-c1cnn(C)n1` [Compound 73]: the figures for the pIC50 in test [1] and in test [2] were 6.85 and 5.25, respectively.
For `COc1cc(Nc2cccc3c2nc(-c2ccc(F)cc2)n3C)ccc1-c1cn(C)nn1` [Compound 74] the same measures were 5.13 and 5.35.
For `COc1cc(Nc2cccc3c2nc(-c2ccc(F)cc2)n3C(C)C)ccc1-c1oc(C)nc1C` [Compound 80] the same measures were 7.31 and less than 5.00.
Turning to `Cc1nc(C)c(-c2ccc(Nc3cccc4c3nc(-c3ccc(F)cc3)n4C(C)C)cc2)o1` [Compound 81], the pIC50 was 7.02 in test [1] and less than 5.00 in test [2].
For `COCc1ncc(-c2ccc(Nc3cccc4c3nc(-c3ccc(F)cc3)n4C(C)C)cc2)o1` [Compound 84] the same measures were 6.95 and less than 5.00.
In the case of `COc1cc(Nc2nc(C)cc3c2nc(-c2ccccc2Cl)n3C)ccc1-c1ocnc1C` [Compound 113], the pIC50 in test [1] is 7.18; in test [2] it was 5.31.
On to `Cc1ncoc1-c1ccc(Nc2cccc3c2nc(-c2ccc(Cl)s2)n3C(C)C)cn1` [Compound 116], for which the pIC50 in test [1] was 7.14; in test [2] it was less than 5.00.
As to `COc1cc(Nc2cc(C(F)(F)F)cc3c2nc(CCC(F)(F)F)n3C)ccc1-c1ocnc1C` [Compound 126], the pIC50 in test [3] is 6.67; in test [1], 6.13.
As for `COc1cc(Nc2nc(C)cc3c2nc(-c2ccc(F)cc2)n3C)ccc1-c1ccnc(C)c1` [Compound 127], the pIC50 is 7.36 in test [1] and 5.44 in test [2].
On to `COc1cc(Nc2cccc3c2nc(-c2ccc(F)cc2)n3C(C)C)ccc1-c1ccnc(C)c1` [Compound 128], for which the figures for the pIC50 in test [1] (Homo sapiens) and in test [2] (Homo sapiens) were 7.41 and 5.04, respectively.
Regarding `COc1nc(Nc2cccc3c2nc(-c2ccc(F)cc2)n3C)ccc1-c1ccnc(C)c1` [Compound 129], the pIC50 was 7.77 in test [1] and 5.28 in test [2].
For `COc1nc(Nc2cccc3c2nc(-c2ccc(F)cc2)n3C(C)C)ccc1-c1ccnc(C)c1` [Compound 130] the same measures were 7.52 and less than 5.00.
Taken in the same sequence, the figures for `Cc1cc(-c2ccc(Nc3cccc4c3nc(-c3ccc(F)cc3)n4C(C)C)cc2)ccn1` [Compound 131] were 7.55 and less than 5.00.
Taken in the same sequence, the figures for `Cc1cc(-c2ccc(Nc3nc(C)cc4c3nc(-c3ccc(F)cc3)n4C)cc2)ccn1` [Compound 132] were 6.91 and 5.20.
With `Cc1cc(-c2ccc(Nc3cccc4c3nc(-c3ccc(F)cc3)n4C)cc2F)ccn1` [Compound 133], the pIC50 in test [1] is 6.72; in test [2], less than 5.00.
For `Cc1cc(-c2ccc(Nc3cccc4c3nc(-c3ccc(F)cc3)n4C)nn2)ccn1` [Compound 135], the values for the pIC50 in test [1] and in test [2] were 6.46 and less than 5.00, respectively.
As for `Cc1cc(-c2ccc(Nc3nc(C)cc4c3nc(-c3ccc(F)cc3)n4C)cc2F)ccn1` [Compound 136], the pIC50 in test [1] was 6.95; in test [2], less than 5.00.
With `Cc1cc(-c2ccc(Nc3cccc4c3nc(-c3ccc(F)cc3)n4C(C)C)cc2F)ccn1` [Compound 137], the values for the pIC50 in test [1] and in test [2] were 6.93 and less than 5.00, respectively.
Turning to `Cc1cc(-c2ccc(Nc3cccc4c3nc(-c3ccc(F)cc3)n4C)cc2)ccn1` [Compound 138], the negative logarithm of the IC50 (pIC50) is 7.31 in test [1] and 5.15 in test [2].
`COc1cc(Nc2cccc3c2nc(-c2ccc(F)cc2)n3C)ccc1-c1ccnc(C)c1` [Compound 139]: the pIC50 in test [1] is 7.22; in test [2], 5.18.
On to `Cc1cc(-c2ccc(Nc3cccc4c3nc(-c3ccc(F)cc3)n4C(C)C)cc2)cc(C)n1` [Compound 140], for which the pIC50 in test [1] is 6.12; in test [2], less than 5.00.
Take `COc1cc(Nc2cc(F)cn3cc(-c4ccc(F)cc4C)nc23)ccc1-c1ocnc1C` [Compound 147]: the pIC50 was 7.07 in test [3] and 6.33 in test [1].
On to `COc1cc(Nc2cc(C(C)=O)cn3cc(CC(C)C)nc23)ccc1-c1ocnc1C` [Compound 156], for which the values for the pIC50 in test [1] (Homo sapiens) and in test [2] (Homo sapiens) were 7.38 and 5.05, respectively.
As to `C=C(C)c1c(-c2ccc(F)cc2)nc2c(Nc3ccc(-c4cnc(C)o4)cc3)cccn12` [Compound 177], the pIC50 in test [3] (Homo sapiens, SKNBE2) is 6.98; in test [4] (Homo sapiens, SKNBE2) it was less than 5.52.
Consider `Cc1ncc(-c2ccc(Nc3cc(F)cn4cc(CC(C)C)nc34)cc2)o1` [Compound 178], for which the pIC50 in test [3] is 7.07; in test [4], less than 5.52.
Turning to `Cc1nc2c(Nc3ccc(-c4cnc(C(C)C)o4)cc3)cccn2c1C` [Compound 180], the pIC50 in test [3] and in test [4] was less than 5.52 each time.
As to `COc1cc(Nc2cc(C3CC3)nc3c2nc(-c2ccc(F)cc2)n3C)ccc1-c1cnc(C)o1` [Compound 192], the pIC50 in test [3] is 7.89; in test [4], less than 5.52.
Taken in the same sequence, the figures for `COc1cc(Nc2cc(C)nc3c2nc(-c2ccc(F)cc2)n3C)ccc1-c1cnc(C)o1` [Compound 193] were 7.72 and less than 5.52.
Taken in the same sequence, the figures for `COc1cc(Nc2cc(C(F)(F)F)nn3cc(C)nc23)ccc1-c1ocnc1C` [Compound 196] were 6.17 and less than 5.52.
For `COc1cc(Nc2cncc3c2nc(-c2ccc(F)cc2)n3C)ccc1-c1ocnc1C` [Compound 199] the same measures were 6.62 and less than 4.52.
For the compound `Cc1ncc(-c2ccc(Nc3cncc4c3nc(-c3ccc(F)cc3)n4C)cn2)o1` [Compound 200], the results for the pIC50 in test [3] and in test [4] were 6.53 and less than 5.52, respectively.
